Positions of bridges follow the written chain, without caps; N, C: chain ends. Non-standard residues stand in square brackets, D forms with d. Residues, ends and D or L forms follow the SMILES beside them. Met(O) = CS(=O)CC[C@H](N)C(=O)O
Legend:
solubility = format: physicochemical; conditions: for solubility of the acetate: acetate of the peptide; for solubility of the trichloracetate: trichloracetate of the peptide
[1] = stability towards mild oxidation with performic acid; format: physicochemical
Protocol: b. 80 g of Bio-gel P6 are allowed to swell overnight in 0.1N-formic acid, then filled into a chromatography tube (internal diameter 2.5 cm) up to a height of 94 cm (when it has settled; total volume of the gel bed, 460 ml). 600 mg of the crude product obtained as described under (a) above are dissolved in 20 ml of 0.1N-formic acid, the solution poured on to the gel column, and eluted with 0.1N-formic acid. The eluate is passed through a recording UV percolation photometer (254 nm) and collected in fractions of 15 ml each. The eluates are analyzed by thin-layer chromatography over Sephadex G 25 (superfine) (registered Trade Mark) in 0.1N-formic acid (with chlorine/tolidine reagent), and tested biologically. The maximum activity is found in an eluate volume corresponding to 0.8 column volume. The fractions are lyophilized individually and yield 70% of the total activity; the best fractions have an activity of 40 MRC units/mg. The molecular weight of these active substances is below 5000. The product can be further purified by counter-current distribution and/or gel chromatography. For this purpose, batches of 2-5 g of the enriched material are subjected to counter-current distribution over 250-300 stages in the system n-butanol:methanol:0.1N-acetic acid (4:1:5). […]

Structure (SMILES)	solubility of the acetate (solubility)	solubility of the trichloracetate (solubility)	stability towards mild oxidation with performic acid [1]
CSCC[C@H](NC(=O)CNC(=O)[C@H](CO)NC(=O)[C@H](Cc1ccccc1)NC(=O)[C@H](CCCNC(=N)N)NC(=O)[C@H](Cc1c[nH]cn1)NC(=O)[C@H](Cc1ccccc1)NC(=O)[C@H](CC(N)=O)NC(=O)[C@H](CC(N)=O)NC(=O)[C@H](CC(C)C)NC(=O)[C@H](CC(N)=O)NC(=O)[C@H](CCCNC(=N)N)NC(=O)[C@H](Cc1c[nH]c2ccccc12)NC(=O)[C@H](Cc1ccc(O)cc1)NC(=O)[C@H](C)NC(=O)[C@H](CO)NC(=O)[C@H](CC(C)C)NC(=O)[C@@H](NC(=O)[C@@H]1CSSC[C@H](N)C(=O)N[C@@H](CO)C(=O)N[C@@H](CC(N)=O)C(=O)N[C@@H](CC(C)C)C(=O)N[C@@H](CO)C(=O)N[C@@H]([C@@H](C)O)C(=O)N1)C(C)C)C(=O)NCC(=O)N[C@@H](Cc1ccccc1)C(=O)NCC(=O)N1CCC[C@H]1C(=O)N[C@@H](CCC(=O)O)C(=O)N[C@H](C(=O)N1CCC[C@H]1C(N)=O)[C@@H](C)O [α-thyrocalcitonin] (H-CSNLSTCVLSAYWRNLNNFHRFSGMGFGPETP-NH2; disulfide 1-7)	readily soluble	rather sparingly soluble	becomes a more polar product
CC(C)C[C@H](NC(=O)[C@H](CC(N)=O)NC(=O)[C@H](CCCNC(=N)N)NC(=O)[C@H](Cc1c[nH]c2ccccc12)NC(=O)[C@H](Cc1ccc(O)cc1)NC(=O)[C@H](C)NC(=O)[C@H](CO)NC(=O)[C@H](CC(C)C)NC(=O)[C@@H](NC(=O)[C@@H]1CSSC[C@H](N)C(=O)N[C@@H](CO)C(=O)N[C@@H](CC(N)=O)C(=O)N[C@@H](CC(C)C)C(=O)N[C@@H](CO)C(=O)N[C@@H]([C@@H](C)O)C(=O)N1)C(C)C)C(=O)N[C@@H](CC(N)=O)C(=O)N[C@@H](CC(N)=O)C(=O)N[C@@H](Cc1ccccc1)C(=O)N[C@@H](Cc1c[nH]cn1)C(=O)N[C@@H](CCCNC(=N)N)C(=O)N[C@@H](Cc1ccccc1)C(=O)N[C@@H](CO)C(=O)NCC(=O)N[C@@H](CC[S+](C)[O-])C(=O)NCC(=O)N[C@@H](Cc1ccccc1)C(=O)NCC(=O)N1CCC[C@H]1C(=O)N[C@@H](CCC(=O)O)C(=O)N[C@H](C(=O)N1CCC[C@H]1C(N)=O)[C@@H](C)O (stereo partly drawn) [β-thyrocalcitonin] (H-CSNLSTCVLSAYWRNLNNFHRFSG[Met(O)]GFGPETP-NH2; disulfide 1-7)	readily soluble	rather sparingly soluble	stable
